The values that follow are results of earlier work, collected in article PMC7837508, “Interactions of the Diazabicyclooctane Serine β-Lactamase Inhibitor ETX1317 with Target Enzymes” (ACS Infectious Diseases, 2020).

The target in data set [1] is T1, TEM-1 (Escherichia coli, UniProt P62593).
T1 construct: made in house
To be noted: cited from earlier work.

Data set [2] addresses T2, CTX-M-15 (Escherichia coli, UniProt Q9EXV5).
T2 construct: made in house
To be noted: CTX-M-15, ambient temperature, pH 7.0, nitrocefin; ref 6 and 7; cited from earlier work.

Data set [3] has as its target T3, KPC-2 (Klebsiella pneumoniae, UniProt Q9F663).
T3 construct: made in house
To be noted: KPC-2, ambient temperature, pH 7.0, nitrocefin; ref 6 and 7; cited from earlier work.

Another data set has as its target OXA-24. To be noted: OXA-24, ambient temperature, pH 7.0, nitrocefin; ref 6 and 7; cited from earlier work.
For data set [4], the target named is T4, P. aeruginosa AmpC (Pseudomonas aeruginosa, UniProt P24735).
T4 construct: made in house
Particulars: cited from earlier work.

In another data set the target is OXA-23. Particulars: OXA-23, ambient temperature, pH 7.0, nitrocefin; ref 6 and 7; cited from earlier work.
The target of data set [5] is T5, E. cloacae P99 (Enterobacter cloacae, UniProt P05364).
T5 construct: made in house
To be noted: cited from earlier work.

Data set [6] deals with T3, KPC-2. To be noted: cited from earlier work.
Data set [7] deals with T6, SHV-5 (Klebsiella pneumoniae, UniProt P0A3M1).
T6 construct: made in house
The arrangement: method as in PMID 28835096. To be noted: cited from earlier work.

Data set [8] addresses T1, TEM-1. More on the design: method as in PMID 28665414, PMID 32658473. To be noted: TEM-1, ambient temperature, pH 7.0, nitrocefin; ref 6 and 7; cited from earlier work.
The target of data set [9] is T7, OXA-48 (Klebsiella pneumoniae, UniProt Q6XEC0).
T7 construct: made in house
Particulars: OXA-48, ambient temperature, pH 7.0, nitrocefin; ref 6 and 7; cited from earlier work.

In data set [10] the target is T2, CTX-M-15. To be noted: cited from earlier work.
The target in data set [11] is T7, OXA-48. To be noted: OXA-48, 37 °C, discontinuous jump dilution method covering 6 h; cited from earlier work.
Data set [12] has as its target T5, E. cloacae P99. Particulars: cited from earlier work. The source holds these as a separate data set.
Data set [13] has as its target T6, SHV-5. To be noted: SHV-5, ambient temperature, pH 7.0, nitrocefin; ref 6 and 7; cited from earlier work.
Data set [14] concerns the target T4, P. aeruginosa AmpC. Particulars: ambient temperature, pH 7.0, nitrocefin, ref 6 and 7; cited from earlier work.
Another data set deals with OXA-10. Particulars: OXA-10, ambient temperature, pH 7.0, nitrocefin; ref 6 and 7; cited from earlier work.

The structures appear in SMILES notation. Like-named read-outs stand apart in the source and are kept apart here.

T6 sequence (P0A3M1 22-286, species assumed): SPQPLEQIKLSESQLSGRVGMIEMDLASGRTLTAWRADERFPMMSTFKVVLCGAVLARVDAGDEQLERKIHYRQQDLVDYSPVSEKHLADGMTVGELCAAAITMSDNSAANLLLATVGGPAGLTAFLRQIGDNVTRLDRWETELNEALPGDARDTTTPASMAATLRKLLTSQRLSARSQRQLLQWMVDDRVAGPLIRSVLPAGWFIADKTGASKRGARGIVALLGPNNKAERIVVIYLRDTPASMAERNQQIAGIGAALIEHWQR
T2 sequence (Q9EXV5 29-291, species assumed): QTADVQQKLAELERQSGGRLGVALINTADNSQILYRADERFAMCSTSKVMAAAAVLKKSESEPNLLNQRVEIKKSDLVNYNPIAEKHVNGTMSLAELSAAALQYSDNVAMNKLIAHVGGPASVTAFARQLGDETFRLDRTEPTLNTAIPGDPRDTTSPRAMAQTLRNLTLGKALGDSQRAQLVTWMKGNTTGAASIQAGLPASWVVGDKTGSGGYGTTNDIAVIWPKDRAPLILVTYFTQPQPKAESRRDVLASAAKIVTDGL
T1 sequence (P62593 24-286 limits assumed): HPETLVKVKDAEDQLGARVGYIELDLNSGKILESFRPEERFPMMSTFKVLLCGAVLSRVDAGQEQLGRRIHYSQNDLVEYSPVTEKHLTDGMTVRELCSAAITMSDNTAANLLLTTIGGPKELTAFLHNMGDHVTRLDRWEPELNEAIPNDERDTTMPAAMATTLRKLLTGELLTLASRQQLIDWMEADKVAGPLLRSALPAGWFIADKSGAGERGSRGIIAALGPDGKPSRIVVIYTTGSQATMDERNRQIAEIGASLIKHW
T4 sequence (P24735 27-397): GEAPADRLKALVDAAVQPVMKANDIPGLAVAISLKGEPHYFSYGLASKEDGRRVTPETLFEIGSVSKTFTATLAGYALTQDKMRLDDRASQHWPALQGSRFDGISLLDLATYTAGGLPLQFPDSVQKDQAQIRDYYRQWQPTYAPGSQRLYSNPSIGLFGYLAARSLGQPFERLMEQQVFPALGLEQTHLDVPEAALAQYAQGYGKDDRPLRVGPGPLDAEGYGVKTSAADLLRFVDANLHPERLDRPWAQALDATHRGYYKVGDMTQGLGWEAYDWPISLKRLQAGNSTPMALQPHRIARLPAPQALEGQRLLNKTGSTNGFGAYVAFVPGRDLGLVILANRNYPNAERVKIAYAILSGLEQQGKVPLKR
T5 sequence (P05364 21-381): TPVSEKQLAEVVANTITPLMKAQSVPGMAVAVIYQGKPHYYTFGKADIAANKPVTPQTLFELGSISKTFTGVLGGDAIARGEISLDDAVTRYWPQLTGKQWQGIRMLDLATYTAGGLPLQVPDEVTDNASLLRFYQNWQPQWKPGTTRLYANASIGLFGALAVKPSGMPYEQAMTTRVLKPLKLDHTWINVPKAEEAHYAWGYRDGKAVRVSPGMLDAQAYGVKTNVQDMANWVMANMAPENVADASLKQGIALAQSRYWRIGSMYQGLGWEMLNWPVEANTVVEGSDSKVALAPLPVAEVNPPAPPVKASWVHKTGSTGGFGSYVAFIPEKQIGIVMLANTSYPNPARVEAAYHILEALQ
T7 sequence (Q6XEC0 23-265, looked up, species assumed): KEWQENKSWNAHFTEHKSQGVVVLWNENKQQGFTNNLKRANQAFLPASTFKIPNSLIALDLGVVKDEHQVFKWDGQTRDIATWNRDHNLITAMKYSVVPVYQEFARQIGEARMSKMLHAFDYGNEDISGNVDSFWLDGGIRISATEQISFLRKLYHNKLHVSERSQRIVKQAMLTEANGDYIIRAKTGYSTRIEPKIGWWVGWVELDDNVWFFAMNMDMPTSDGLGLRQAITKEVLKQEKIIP
T3 sequence (Q9F663 25-293, looked up, species assumed): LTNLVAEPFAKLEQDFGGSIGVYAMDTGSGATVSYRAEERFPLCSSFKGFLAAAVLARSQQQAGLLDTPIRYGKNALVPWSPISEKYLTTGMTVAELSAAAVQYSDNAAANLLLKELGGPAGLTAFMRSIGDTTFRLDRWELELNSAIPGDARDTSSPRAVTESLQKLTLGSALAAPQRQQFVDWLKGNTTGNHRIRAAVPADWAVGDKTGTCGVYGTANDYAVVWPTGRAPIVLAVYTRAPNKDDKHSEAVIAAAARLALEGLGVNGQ

`CC1=C[C@@H]2CN(C(=O)N2OS(=O)(=O)O)[C@@H]1C(N)=O` [durlobactam]: the koff is 1.4 (±0.2) × 10^–3 s^–1 on TEM-1 [1]; 4 (±1) × 10^–3 s^–1 at P. aeruginosa AmpC [4]; 1.0 (±0.1) × 10^–3 s^–1 on KPC-2 [6]; 5.5 (±0.3) × 10^–4 s^–1 on SHV-5 [7]; 2.2 (±0.5) × 10^–4 s^–1 on CTX-M-15 [10]; 2.5 (±0.3) × 10^–5 s^–1 on OXA-48 [11]. Moreover, at E. cloacae P99 [12], the koff is on record as 3.4 (±0.5) × 10^–4 s^–1. Besides, the kinact/Ki at CTX-M-15 [2] was 7 (±2) × 10^6 M^–1 s^–1; at KPC-2 [3], 9.3 (±0.6) × 10^5 M^–1 s^–1; on OXA-24, 9 (±2) × 10^3 M^–1 s^–1; on OXA-23, 5.1 (±0.2) × 10^3 M^–1 s^–1; on E. cloacae P99 [5] (E. cloacae P99, ambient temperature, pH 7.0, nitrocefin, ref 6 and 7), 2.3 (±0.4) × 10^6 M^–1 s^–1; at TEM-1 [8], 1.4 (±0.6) × 10^7 M^–1 s^–1. Also, the kinact/Ki is 8 (±2) × 10^5 M^–1 s^–1 at OXA-48 [9], 6.4 (±0.5) × 10^6 M^–1 s^–1 on SHV-5 [13], 9 (±5) × 10^5 M^–1 s^–1 on P. aeruginosa AmpC [14] and 9 (±2) × 10^3 M^–1 s^–1 at OXA-10.

In the case of `NC(=O)[C@@H]1CC[C@@H]2CN1C(=O)N2OS(=O)(=O)O` [avibactam], the kinact/Ki was 8 × 10^5 M^–1 s^–1 on CTX-M-15 [2]; 6 × 10^3 M^–1 s^–1 on KPC-2 [3]; 80 M^–1 s^–1 on OXA-24; 8 × 10^3 M^–1 s^–1 on E. cloacae P99 [5] (pH 7); 4 × 10^5 M^–1 s^–1 on TEM-1 [8]; 5 × 10^3 M^–1 s^–1 on OXA-48 [9]. The kinact/Ki was 1 × 10^5 M^–1 s^–1 on SHV-5 [13], 3 × 10^3 M^–1 s^–1 at P. aeruginosa AmpC [14] and 70 M^–1 s^–1 at OXA-10.
